For one test, the system named is crabgrass. Description: Test A post-emergence. Particulars: 0.4 kg/ha. It counts as in vivo, Digitaria spp. Also noted: key: 0 = no effect, 10 = maximum effect; letter = response symbol. From the text: (§1) The activity of these compounds was discovered in a number of greenhouse and field tests. The ratings are based on a numerical scale extending from 0=no effect, to 10=maximum effect. The accompanying descriptive symbols have the following meanings:
(§2) Seeds of crabgrass (Digitaria spp.), barnyardgrass (Echinochloa crusgalli), wild oats (Avena fatua), cassia (Cassia tora), morningglory (Ipomoea spp.), cocklebur (Xanthium spp.), sorghum, corn, soybean, rice, wheat and nutsedge tubers (Cyperus rotundus) were planted in a growth medium and treated preemergence with a nonphytotoxic solvent solution of the compounds of Table XII. Other batches of seeds and tubers for all of the foregoing weed and crop plants were planted at the same time as controls. The control plantings were untreated; i.e., neither any compound nor any solvent was applied. At the same time, cotton having five leaves (including cotyledonary ones), bush beans with the third trifoliate leaf expanding, crabgrass with two leaves, barnyardgrass with two leaves, wild oats with two leaves, cassia with three leaves (including cotyledonary ones), morningglory with four leaves (including the cotyledonary ones), cocklebur with four leaves (including the cotyledonary ones), sorghum with four leaves, corn with four leaves, soybean with two cotyledonary leaves, rice with three leaves, wheat with one leaf, and nutsedge with three-five leaves were sprayed with a nonphytotoxic solvent solution of the compounds of Table XII. Other groups of all the same weed and crop plants were sprayed with the same nonphytotoxic solvent so as to provide control plants. Preemergence and postemergence treated plants and controls were maintained in a greenhouse for sixteen days, then all treated plants were compared with their respective controls and rated visually for response to treatment.

The subject of the next test is nutsedge. Put plainly: Test A post-emergence. It counts as in vivo, Cyperus rotundus. Also noted: key: 0 = no effect, 10 = maximum effect; letter = response symbol. As to conditions: 0.4 kg/ha.
Source text: as §1, §2

For test [1], the system named is cocklebur. Put plainly: Test A post-emergence. It counts as in vivo, Xanthium spp. Also noted: key: 0 = no effect, 10 = maximum effect; letter = response symbol. Particulars: 0.4 kg/ha.
Source text: as §1, §2

Test [2] relates to morningglory. Description: Test A post-emergence. It counts as in vivo, Ipomoea spp. Details: key: 0 = no effect, 10 = maximum effect; letter = response symbol. As to conditions: 0.4 kg/ha.
Source text: as §1, §2

A further test concerns wild oats. Description: Test A post-emergence. Also noted: key: 0 = no effect, 10 = maximum effect; letter = response symbol. In kind it is in vivo, Avena fatua.
Source text: as §1, §2

A further test has as its system purple nutsedge. Put plainly: Test F post-emergence. It counts as in vivo, Cyperus rotundus. From the text:
Purple nutsedge tubers (Cyperus rotundus) were planted about 2 cm deep in Fallsington silt loam contained in plastic pots 10 cm in diameter. Five tubers were put in each pot. Compounds of this invention were sprayed dissolved in a non-phytotoxic solvent at a volume rate of 560 l/ha. in four different methods of treatment, i.e., soil surface spray, tuber/soil spray, soil incorporated and post-emergence. For the soil surface spray, the compounds were sprayed on the firmed soil surface immediately after planting. For the tuber/soil spray, the compounds were sprayed on the exposed tubers and subtending soil before the untreated covering soil was added. Soil incorporation treatments were mixed in the covering soil. Post-emergence treatments were sprayed on the nutsedge foliage and surrounding soil surface after the nutsedge had emerged and had reached the height of about 12 cm.
Immediately after spraying the surface spray, tuber/soil spray and soil incorporated treatments were misted with about 0.3 cm of water over a 90 minute period and then placed in the greenhouse. Post-emergence treatments were placed directly into the greenhouse and watered carefully so that treatments would not be washed from the foliage.

The next test has as its system bush bean. Description: Test A post-emergence. In kind it is in vivo, bush beans. Also noted: key: 0 = no effect, 10 = maximum effect; letter = response symbol. Particulars: 0.4 kg/ha.
Test [3] has as its system cassia. Description: Test A post-emergence. Details: key: 0 = no effect, 10 = maximum effect; letter = response symbol. In kind it is in vivo, Cassia tora. Particulars: 0.4 kg/ha.
Source text: as §1, §2

In test [4] the test system is wheat. Description: Test A post-emergence. Also noted: key: 0 = no effect, 10 = maximum effect; letter = response symbol. In kind it is in vivo.
Source text: as §1, §2

The subject of test [5] is cocklebur. Description: Test A pre-emergence. It counts as in vivo, Xanthium spp. Also noted: key: 0 = no effect, 10 = maximum effect; letter = response symbol. Particulars: 0.4 kg/ha.
Source text: as §1, §2

The test system of another test is soybean. Description: Test A pre-emergence. Also noted: key: 0 = no effect, 10 = maximum effect; letter = response symbol. Particulars: 0.4 kg/ha. It counts as in vivo.
Source text: as §1, §2

For test [6], the system named is wheat. Put plainly: Test A pre-emergence. It counts as in vivo. Details: key: 0 = no effect, 10 = maximum effect; letter = response symbol. As to conditions: 0.4 kg/ha.
Source text: as §1, §2

The test system of test [7] is cassia. Description: Test A pre-emergence. It counts as in vivo, Cassia tora. Particulars: 0.4 kg/ha. Details: key: 0 = no effect, 10 = maximum effect; letter = response symbol.
Source text: as §1, §2

The subject of test [8] is morningglory. Description: Test A pre-emergence. In kind it is in vivo, Ipomoea spp. Also noted: key: 0 = no effect, 10 = maximum effect; letter = response symbol. As to conditions: 0.4 kg/ha.
Source text: as §1, §2

The subject of test [9] is barnyardgrass. Put plainly: Test A pre-emergence. In kind it is in vivo, Echinochloa crusgalli. Details: key: 0 = no effect, 10 = maximum effect; letter = response symbol. As to conditions: 0.4 kg/ha.
Source text: as §1, §2

In test [10] the test system is barnyardgrass. Put plainly: Test A post-emergence. Also noted: key: 0 = no effect, 10 = maximum effect; letter = response symbol. In kind it is in vivo, Echinochloa crusgalli.
Source text: as §1, §2

The test system of the next test is corn. Put plainly: Test A post-emergence. It counts as in vivo. Details: key: 0 = no effect, 10 = maximum effect; letter = response symbol. Particulars: 0.4 kg/ha.
Source text: as §1, §2

The subject of a further test is sorghum. Put plainly: Test A pre-emergence. In kind it is in vivo. Also noted: key: 0 = no effect, 10 = maximum effect; letter = response symbol. Particulars: 0.4 kg/ha.
Source text: as §1, §2

In the case of `CCC(C)OC(=O)c1ccccc1S(=O)(=O)NC(=O)Nc1nc(C)cc(OC)n1` (stereo not shown) [drawing 424], the response rating in the test with crabgrass is listed as 0; with nutsedge, 8G; in the test with cocklebur [1], 9C; in the test with morningglory [2] it was 10C; in the test on wild oats (0.4 kg/ha), 8G.
For `CCOC(=O)c1ccccc1S(=O)(=O)NC(=O)Nc1nc(OC)cc(OC)n1` [drawing 598], the “response rating after 4 weeks” value in the test with purple nutsedge (.008 kg/ha), with purple nutsedge (.032 kg/ha), with purple nutsedge (.125 kg/ha) and with purple nutsedge (.25 kg/ha) was 10C in each case.
With `COC(=O)c1cc([N+](=O)[O-])ccc1S(=O)(=O)NC(=O)Nc1nc(C)cc(OC)n1` [drawing 462], the response rating with bush bean worked out at 9C; in the test on nutsedge, 9G; in the test on cocklebur [1] it was 9C; in the test with morningglory [2], 9C; with cassia [3], 9C.
With `COC(=O)c1ccccc1S(=O)(=O)NC(=O)Nc1nc(OC)nc(OC)n1` [drawing 595], the “response rating after 4 weeks” value in the test with purple nutsedge (.004 kg/ha) was found to be 0; in the test with purple nutsedge (.008 kg/ha), 0; in the test on purple nutsedge (.032 kg/ha) it was 3G.
As to `COc1cc(C)nc(NC(=O)NS(=O)(=O)c2ccccc2C(=O)OC(C)C)n1` [drawing 601], the “response rating after 4 weeks” value in the test on purple nutsedge (.008 kg/ha), in the test with purple nutsedge (.032 kg/ha), with purple nutsedge (.125 kg/ha) and in the test on purple nutsedge (.25 kg/ha) was 10C each time.
Consider `COc1nc(C)nc(NC(=O)NS(=O)(=O)c2ccccc2C(=O)OC(C)CCl)n1` (stereo not shown) [drawing 459], for which the response rating with bush bean is 9C; with wheat [4] (0.4 kg/ha) it was 2G; in the test on cocklebur [1], 9C; in the test on morningglory [2] it was 10C; in the test on wild oats (0.4 kg/ha) it was 3G.
In the case of `COc1nc(C)nc(NC(=O)NS(=O)(=O)c2ccccc2C(=O)OCc2ccc(Cl)cc2)n1` [drawing 460], the response rating in the test on nutsedge was determined as 0; with wheat [4] (0.4 kg/ha), 0; in the test with morningglory [2], 9C; with wild oats (0.4 kg/ha), 2C.
Regarding `CNC(=O)c1ccccc1S(=O)(=O)NC(=O)Nc1nc(C)cc(OC)n1` [drawing 533], the response rating was 9G in the test with cocklebur [5], 9H in the test with soybean, 9H in the test with wheat [6] and 9G with cassia [7].
Take `COc1cc(C)nc(NC(=O)NS(=O)(=O)c2ccccc2C(=O)OCCOCCOCCCl)n1` [drawing 515]: the response rating is recorded as 9G in the test with cocklebur [5]; 9G in the test with morningglory [8]; 9H with soybean; 9C with cassia [7]; 9H in the test on barnyardgrass [9].
For `COc1nc(C)nc(NC(=O)NS(=O)(=O)c2ccccc2C(=O)OC(C)Cc2ccccc2)n1` (stereo not shown) [drawing 457], the response rating with crabgrass stood at 9C; with barnyardgrass [10] (0.4 kg/ha), 9C; in the test on bush bean it was 9C; in the test on nutsedge it was 7G; in the test on corn it was 9C; with cocklebur [1], 9C. Besides, the response rating in the test on morningglory [2] and with cassia [3] was 10C each time.
Regarding `COC(=O)c1ccccc1S(=O)(=O)NC(=O)Nc1nc(C)nc(OC)n1` [drawing 594], the “response rating after 4 weeks” value in the test on purple nutsedge (.004 kg/ha) stood at 0; in the test with purple nutsedge (.008 kg/ha), 2G; with purple nutsedge (.016 kg/ha) it was 2G.
For the compound `COC(=O)c1cc(Cl)ccc1S(=O)(=O)NC(=O)Nc1nc(OC)cc(OC)n1` [drawing 605], the “response rating after 4 weeks” value in the test on purple nutsedge (.008 kg/ha), in the test on purple nutsedge (.032 kg/ha) and with purple nutsedge (.125 kg/ha) was 10C throughout.
`COc1cc(C)nc(NC(=O)NS(=O)(=O)c2ccccc2C(=O)OC2CCOC2)n1` (stereo not shown) [drawing 513]: the response rating in the test with cocklebur [5] worked out at 9G; in the test with morningglory [8], 9G; in the test with soybean, 9H; in the test with wheat [6] it was 9H; in the test with cassia [7], 9G; with barnyardgrass [9], 9H.
In the case of `COc1cc(C)nc(NC(=O)NS(=O)(=O)c2ccccc2C(=O)CCC(C)C)n1` [drawing 449], the response rating in the test with barnyardgrass [10] (0.4 kg/ha) was 9C; in the test with bush bean it was 10D; in the test with corn, 9H; with morningglory [2] it was 10C.
In the case of `CCCCOC(=O)c1ccccc1S(=O)(=O)NC(=O)Nc1nc(C)cc(OC)n1` [drawing 599], the “response rating after 4 weeks” value in the test on purple nutsedge (.125 kg/ha) was determined as 8C.
Turning to `COc1cc(C)nc(NC(=O)NS(=O)(=O)c2ccccc2C(=O)SC)n1` [drawing 544], the response rating turned out to be 9G in the test on cocklebur [5]; 9G in the test with morningglory [8]; 9H in the test with soybean; 9H in the test with sorghum; 9G in the test with cassia [7].
Turning to `COC(=O)c1ccccc1S(=O)(=O)NC(=O)Nc1nc(OC)cc(OC)n1` [drawing 593], the “response rating after 4 weeks” value in the test on purple nutsedge (.004 kg/ha) was 8C; in the test with purple nutsedge (.008 kg/ha), 10C; in the test with purple nutsedge (.016 kg/ha), 10C; in the test with purple nutsedge (.032 kg/ha) it was 9C; with purple nutsedge (.064 kg/ha), 10C.
On to `COC(=O)c1ccccc1S(=O)(=O)NC(=O)Nc1ncccn1` [drawing 418], for which the results for the response rating with barnyardgrass [10] (2 kg/ha), in the test with wheat [4] (2 kg/ha) and with wild oats (2 kg/ha) were 9C, 5G and 2G, respectively.
For `COC(=O)c1ccccc1S(=O)(=O)NC(=O)Nc1nc(C)cc(C)n1` [drawing 591], the “response rating after 4 weeks” value in the test with purple nutsedge (.008 kg/ha) was 9C; with purple nutsedge (.016 kg/ha), 9C; in the test on purple nutsedge (.032 kg/ha), 10C; in the test on purple nutsedge (.064 kg/ha) it was 10C.
`COC(=O)c1ccccc1S(=O)(=O)NC(=O)Nc1nc(C)cc(OC)n1` [drawing 592]: the “response rating after 4 weeks” value in the test on purple nutsedge (.008 kg/ha) was 9C; in the test with purple nutsedge (.016 kg/ha), 9C; with purple nutsedge (.032 kg/ha) it was 10C; in the test on purple nutsedge (.064 kg/ha) it was 10C.
As to `COc1cc(OC)nc(NC(=O)NS(=O)(=O)c2ccccc2C(=O)OC(C)C)n1` [drawing 602], the “response rating after 4 weeks” value with purple nutsedge (.008 kg/ha), in the test with purple nutsedge (.032 kg/ha), in the test with purple nutsedge (.125 kg/ha) and in the test on purple nutsedge (.25 kg/ha) was 10C throughout.
In the case of `CCCCCCCCCCOC(=O)c1ccccc1S(=O)(=O)NC(=O)Nc1nc(C)cc(OC)n1` [drawing 428], the response rating stood at 0 in the test with crabgrass; 7G in the test with nutsedge; 3C with wheat [4] (0.4 kg/ha); 5G in the test with cassia [3]; 5G in the test with wild oats (0.4 kg/ha).

(Values after US4383113A, “Agricultural sulfonamides” (E. I. Du Pont de Nemours and Company, priority 1981, dated 1983).)
